In patent US11345912B2, “Directed evolution of multivalent glycopeptides that tightly bind to target proteins” (Brandeis University, priority 2013, dated 2022):

Test system: 2G12
Experiment: Binding curve and KD determination of 2G12-glycopeptide interaction (radiolabeled glycopeptide, protein G magnetic bead capture, scintillation counting)
Description: The resulting mRNAs were purified by denaturing PAGE or MEGAclear kit (Ambion), and 1 μM RNA was used in PURE system translation (reaction volume of translation varied). Typically, 25 μL of translated reaction was diluted with 100 μL of binding buffer (50 mM Tris-HCl, pH 7.8, 300 mM NaCl, 5 mM β-mercaptoethanol) and 25 μL of Ni-NTA agarose suspension (Qiagen), and tumbled at room temperature for 1 h. The resins were transferred to 0.22 μm spin-filter rinsing with 100 μL of bind buffer, and washed with 3×200 μL of bind buffer and 2×200 μL of wash buffer (50 mM Tris-HCl, pH 7.8, 5 mM β-mercaptoethanol). The bound peptides were eluted with 2×25 μL of 0.1% TFA. The eluted peptides were analyzed by MALDI-TOF MS, using α-Cyano-4-hydroxycinnamic acid matrix (Sigma), with or without desalting with ZipTip C18 resin (Millipore). For calibration of MALDI-TOF-MS, at least two of the following standards, bovine insulin, E. coli thioredoxin and/or horse apomyoglobin were used. To quantitate peptide yields, the radioactivities were measured by liquid scintillation counting. For the click reaction, the translated and purified peptides were mixed with 0.1% (v/v) Triton X-100, and then dialyzed against H2O containing 0.1% (v/v) Triton X-100 using Slide-A-Lyzer MINI Dialysis Devices, 3.5K MWCO (Thermo Scientific) overnight to desalt. After dialysis, the peptides were divided into two portions: one was glycosylated via the click reaction, while the other was saved as a non-glycosylated peptide control. […] The glycosylated peptide (<4 pmol) was incubated with 100 nM 2G12 in selection buffer (40 μL) at room temp. The solution was then tumbled 30 min with 0.12 mg of equilibrated Dynabeads Protein G to capture 2G12-glycopeptide complex. Beads were then washed with 3×40 μL of selection buffer and resuspended in 10 μL of selection buffer. The resuspended beads were heated at 70° C. for 30 min to denature 2G12 and elute glycopeptides, chilled on ice for 5 min, and tumbled at room temperature for 10 min. The magnetically isolated supernatant was recovered and the beads were rinsed with 10 μL of selection buffer.
Then, the solution was added to 0.12 mg of pre-equilibrated Dynabeads Protein G and tumbled at room temperature for 30 min. The supernatant was removed and the beads were washed with 3×40 μL of selection buffer. The radioactivities of the supernatant and wash solutions were measured by liquid scintillation counting as unbound fractions. […] The beads were resuspended in 40 μL of selection buffer, heated at 70° C. for 30 min to elute the bound glycopeptides, chilled on ice for 5 min, and tumbled at room temperature for 10 min. The supernatant was removed, and the beads were washed with 40 μL of selection buffer and resuspended in 40 μL of selection buffer. The radioactivities of these solutions and suspensions were measured by liquid scintillation counting separately and the values were combined as apparent bound fractions. […] All experiments were done at least in triplicate. KDs were calculated as described in the footnote of Table 4 (below).

[1] = Table 4, maximal fraction bound from curve fit, error = standard error of fit

Compound | Fmax [%] [1] [%] | Kd (Table 4, ribosomally translated radiolabeled glycopeptide with His6/FLAG tag, room temperature, fit Fbound=(Fmax[2G12])/(KD+[2G12]), error = standard error of fit) [nM] | Fmax [%] (Table 6 mutational analysis, radioactive bead binding assay) | Kd (Table 6 mutational analysis, radioactive bead binding assay, ribosomally translated) [nM] | binding to 2G12 after truncation (in words) (truncated clones, Table 6)
CC[C@H](C)[C@H](NC(=O)[C@H](CO)NC(=O)[C@@H](NC(=O)[C@H](CCc1cn(C2CCC(OC3O[C@H](CO[C@H]4O[C@H](CO[C@H]5O[C@H](CO)[C@@H](O)[C@H](O)[C@@H]5O[C@H]5O[C@H](CO)[C@@H](O)[C@H](O)[C@@H]5O)[C@@H](O)[C@H](O[C@H]5O[C@H](CO)[C@@H](O)[C@H](O)[C@@H]5O[C@H]5O[C@H](CO)[C@@H](O)[C@H](O)[C@@H]5O)[C@@H]4O)[C@@H](O)[C@H](O[C@H]4O[C@H](CO)[C@@H](O)[C@H](O)[C@@H]4O[C@H]4O[C@H](CO)[C@@H](O)[C@H](O)[C@@H]4O[C@H]4O[C@H](CO)[C@@H](O)[C@H](O)[C@@H]4O)[C@@H]3O)CC2)nn1)NC=O)[C@@H](C)O)C(=O)N1CCC[C@H]1C(=O)N[C@@H](Cc1ccc(O)cc1)C(=O)N[C@H](C(=O)N[C@@H](Cc1ccc(O)cc1)C(=O)N[C@@H](CC(C)C)C(=O)N[C@@H](CC(N)=O)C(=O)N[C@@H](CCCNC(=N)N)C(=O)N[C@@H](CO)C(=O)N[C@@H](CC(C)C)C(=O)N[C@@H](Cc1c[nH]c2ccccc12)C(=O)N[C@H](C(=O)N[C@@H](CC(N)=O)C(=O)N[C@@H](Cc1ccc(O)cc1)C(=O)N[C@@H](CCCNC(=N)N)C(=O)N[C@H](C(=O)N[C@@H](CC(N)=O)C(=O)N[C@@H](CO)C(=O)N[C@@H](Cc1c[nH]c2ccccc12)C(=O)N[C@@H](CO)C(=O)N[C@@H](CCc1cn(C2CCC(OC3O[C@H](CO[C@H]4O[C@H](CO[C@H]5O[C@H](CO)[C@@H](O)[C@H](O)[C@@H]5O[C@H]5O[C@H](CO)[C@@H](O)[C@H](O)[C@@H]5O)[C@@H](O)[C@H](O[C@H]5O[C@H](CO)[C@@H](O)[C@H](O)[C@@H]5O[C@H]5O[C@H](CO)[C@@H](O)[C@H](O)[C@@H]5O)[C@@H]4O)[C@@H](O)[C@H](O[C@H]4O[C@H](CO)[C@@H](O)[C@H](O)[C@@H]4O[C@H]4O[C@H](CO)[C@@H](O)[C@H](O)[C@@H]4O[C@H]4O[C@H](CO)[C@@H](O)[C@H](O)[C@@H]4O)[C@@H]3O)CC2)nn1)C(=O)N[C@@H](CO)C(=O)N[C@@H](CCCCN)C(=O)N[C@@H](CC(N)=O)C(=O)N[C@H](C(=O)N[C@@H](CC(N)=O)C(=O)N[C@H](C(=O)N[C@@H](CCc1cn(C2CCC(OC3O[C@H](CO[C@H]4O[C@H](CO[C@H]5O[C@H](CO)[C@@H](O)[C@H](O)[C@@H]5O[C@H]5O[C@H](CO)[C@@H](O)[C@H](O)[C@@H]5O)[C@@H](O)[C@H](O[C@H]5O[C@H](CO)[C@@H](O)[C@H](O)[C@@H]5O[C@H]5O[C@H](CO)[C@@H](O)[C@H](O)[C@@H]5O)[C@@H]4O)[C@@H](O)[C@H](O[C@H]4O[C@H](CO)[C@@H](O)[C@H](O)[C@@H]4O[C@H]4O[C@H](CO)[C@@H](O)[C@H](O)[C@@H]4O[C@H]4O[C@H](CO)[C@@H](O)[C@H](O)[C@@H]4O)[C@@H]3O)CC2)nn1)C(=O)N1CCC[C@H]1C(=O)N[C@@H](CC(C)C)C(=O)NCC(=O)N[C@@H](CO)C(=O)NCC(=O)N[C@@H](CO)C(=O)N[C@@H](CC(C)C)C(=O)NCC(=O)N[C@@H](Cc1c[nH]cn1)C(=O)N[C@@H](Cc1c[nH]cn1)C(=O)N[C@@H](Cc1c[nH]cn1)C(=O)N[C@@H](Cc1c[nH]cn1)C(=O)N[C@@H](Cc1c[nH]cn1)C(=O)N[C@@H](Cc1c[nH]cn1)C(=O)N[C@@H](CCCNC(=N)N)C(=O)N[C@@H](CC(=O)O)C(=O)N[C@@H](Cc1ccc(O)cc1)C(=O)N[C@@H](CCCCN)C(=O)N[C@@H](CC(=O)O)C(=O)N[C@@H](CC(=O)O)C(=O)N[C@@H](CC(=O)O)C(=O)N[C@@H](CC(=O)O)C(=O)N[C@@H](CCCCN)C(=O)O)C(C)C)C(C)C)C(C)C)[C@@H](C)O)[C@@H](C)O (stereo partly drawn) [Clone 10V9, XTSIPYTYLNRSLWTNYRVNSWSXSKNVNVXPL] | 85 ± 0.68 | 3.9 ± 0.11 |  |  | 
XIRXRTPTSRLXSTXRGXTXNXTSXITPRNDXI [Clone 7V8] | 108 ± 12 |  |  |  | 
CC[C@H](C)[C@H](NC(=O)[C@H](CCCNC(=N)N)NC(=O)[C@H](Cc1c[nH]cn1)NC(=O)[C@H](Cc1ccccc1)NC(=O)[C@H](CC(C)C)NC(=O)[C@H](C)NC(=O)[C@H](CC(C)C)NC(=O)[C@H](C)NC(=O)[C@H](Cc1ccc(O)cc1)NC(=O)[C@H](CCc1cn(C2CCC(OC3O[C@H](CO[C@H]4O[C@H](CO[C@H]5O[C@H](CO)[C@@H](O)[C@H](O)[C@@H]5O[C@H]5O[C@H](CO)[C@@H](O)[C@H](O)[C@@H]5O)[C@@H](O)[C@H](O[C@H]5O[C@H](CO)[C@@H](O)[C@H](O)[C@@H]5O[C@H]5O[C@H](CO)[C@@H](O)[C@H](O)[C@@H]5O)[C@@H]4O)[C@@H](O)[C@H](O[C@H]4O[C@H](CO)[C@@H](O)[C@H](O)[C@@H]4O[C@H]4O[C@H](CO)[C@@H](O)[C@H](O)[C@@H]4O[C@H]4O[C@H](CO)[C@@H](O)[C@H](O)[C@@H]4O)[C@@H]3O)CC2)nn1)NC(=O)[C@H](CC(=O)O)NC(=O)[C@@H](NC(=O)[C@@H](NC(=O)[C@H](CCC(N)=O)NC(=O)[C@H](CCc1cn(C2CCC(OC3O[C@H](CO[C@H]4O[C@H](CO[C@H]5O[C@H](CO)[C@@H](O)[C@H](O)[C@@H]5O[C@H]5O[C@H](CO)[C@@H](O)[C@H](O)[C@@H]5O)[C@@H](O)[C@H](O[C@H]5O[C@H](CO)[C@@H](O)[C@H](O)[C@@H]5O[C@H]5O[C@H](CO)[C@@H](O)[C@H](O)[C@@H]5O)[C@@H]4O)[C@@H](O)[C@H](O[C@H]4O[C@H](CO)[C@@H](O)[C@H](O)[C@@H]4O[C@H]4O[C@H](CO)[C@@H](O)[C@H](O)[C@@H]4O[C@H]4O[C@H](CO)[C@@H](O)[C@H](O)[C@@H]4O)[C@@H]3O)CC2)nn1)NC(=O)[C@H](CCCCN)NC(=O)[C@H](CC(C)C)NC(=O)[C@H](C)NC(=O)[C@H](C)NC(=O)[C@H](CCc1cn(C2CCC(OC3O[C@H](CO[C@H]4O[C@H](CO[C@H]5O[C@H](CO)[C@@H](O)[C@H](O)[C@@H]5O[C@H]5O[C@H](CO)[C@@H](O)[C@H](O)[C@@H]5O)[C@@H](O)[C@H](O[C@H]5O[C@H](CO)[C@@H](O)[C@H](O)[C@@H]5O[C@H]5O[C@H](CO)[C@@H](O)[C@H](O)[C@@H]5O)[C@@H]4O)[C@@H](O)[C@H](O[C@H]4O[C@H](CO)[C@@H](O)[C@H](O)[C@@H]4O[C@H]4O[C@H](CO)[C@@H](O)[C@H](O)[C@@H]4O[C@H]4O[C@H](CO)[C@@H](O)[C@H](O)[C@@H]4O)[C@@H]3O)CC2)nn1)NC(=O)[C@H](CCc1cn(C2CCC(OC3O[C@H](CO[C@H]4O[C@H](CO[C@H]5O[C@H](CO)[C@@H](O)[C@H](O)[C@@H]5O[C@H]5O[C@H](CO)[C@@H](O)[C@H](O)[C@@H]5O)[C@@H](O)[C@H](O[C@H]5O[C@H](CO)[C@@H](O)[C@H](O)[C@@H]5O[C@H]5O[C@H](CO)[C@@H](O)[C@H](O)[C@@H]5O)[C@@H]4O)[C@@H](O)[C@H](O[C@H]4O[C@H](CO)[C@@H](O)[C@H](O)[C@@H]4O[C@H]4O[C@H](CO)[C@@H](O)[C@H](O)[C@@H]4O[C@H]4O[C@H](CO)[C@@H](O)[C@H](O)[C@@H]4O)[C@@H]3O)CC2)nn1)NC=O)C(C)C)[C@@H](C)O)C(=O)N[C@@H](CC(C)C)C(=O)NCC(=O)N[C@@H](CO)C(=O)NCC(=O)N[C@@H](CO)C(=O)N[C@@H](CC(C)C)C(=O)NCC(=O)N[C@@H](Cc1c[nH]cn1)C(=O)N[C@@H](Cc1c[nH]cn1)C(=O)N[C@@H](Cc1c[nH]cn1)C(=O)N[C@@H](Cc1c[nH]cn1)C(=O)N[C@@H](Cc1c[nH]cn1)C(=O)N[C@@H](Cc1c[nH]cn1)C(=O)N[C@@H](CCCNC(=N)N)C(=O)N[C@@H](CC(=O)O)C(=O)N[C@@H](Cc1ccc(O)cc1)C(=O)N[C@@H](CCCCN)C(=O)N[C@@H](CC(=O)O)C(=O)N[C@@H](CC(=O)O)C(=O)N[C@@H](CC(=O)O)C(=O)N[C@@H](CC(=O)O)C(=O)N[C@@H](CCCCN)C(=O)O (stereo partly drawn) [Clone 10F2-Δ11, XXAALKXQVTDXYALALFHRIL] |  |  | 70 | 0.89 | tight binding
